Each compound was assayed on HEK293 cells (assay: HEK293 VLCFA-LPC IC50 determination (13C-labeled C26:0 LPC by UHPLC/MS)). Settings: Homo sapiens, HEK293, 48 h, average of one or more replicates; 13C-labeled C26:0 LPC, 48 hours; read-out: Average HEK293 IC50.
Format: cell-based, human
How it was run: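 Suspension HEK293 cells (final 0.5 million/mL after mixing with equal volume) incubated 48 hours with compound plus 13C-acetate (1.0 mg/mL in added media), shaking at 37° C. Lipids extracted with hexane/isopropanol or methanol, C13:0 LPC standard. UHPLC/MS of 13C-labeled C26:0 LPC (638.500/104.100 m/z); IC50 by four-parameter fit.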

| SMILES | IC50 [nM] |
| --- | --- |
| O=C(Nc1ccn(-c2ccccc2)n1)C1(c2ccccc2)CC1CO (stereo not drawn) [Compound 444, 2-(hydroxymethyl)-1-phenyl-N-(1-phenyl-1H-pyrazol-3-yl)cyclopropane-1-carboxamide] | 260 |
| O=C(Nc1nn(-c2cncc(F)c2)cc1F)C1(c2ccccc2)CC1 [Compound 445, N-[4-fluoro-1-(5-fluoro-3-pyridyl)pyrazol-3-yl]-1-phenyl-cyclopropanecarboxamide] | 1400 |
| COc1cc(-n2ccc(NC(=O)C3(c4ccccc4F)CC3)n2)cnn1 [Compound 447, 1-(2-fluorophenyl)-N-[1-(6-methoxypyridazin-4-yl)pyrazol-3-yl]cyclopropanecarboxamide] | > 5000 |

Same assay, conditions: Homo sapiens, HEK293, HEK293 cells; average of one or more replicates; read-out: Average HEK293 IC50

| SMILES | IC50 [nM] |
| --- | --- |
| COc1cc(-n2ccc(NC(=O)C3(c4ncccn4)CC3)n2)ccn1 [Compound 407, N-[1-(2-methoxy-4-pyridyl)pyrazol-3-yl]-1-pyrimidin-2-yl-cyclopropanecarboxamide] | > 5000 |
| COc1ncc(-n2ccc(NC(=O)C3(c4ccccc4F)CC3)n2)s1 [Compound 408, 1-(2-fluorophenyl)-N-[1-(2-methoxythiazol-5-yl)pyrazol-3-yl]cyclopropanecarboxamide] | 1000 |
| O=C(Nc1ccn(-c2ccc(OC(F)F)nc2)n1)C1(c2ccccc2F)CC1 [Compound 409, N-[1-[6-(difluoromethoxy)-3-pyridyl]pyrazol-3-yl]-1-(2-fluorophenyl)cyclopropanecarboxamide] | > 5000 |
| O=C(Nc1ccn(-c2cnc(Cl)s2)n1)C1(c2ccccc2F)CC1 [Compound 410, N-[1-(2-chlorothiazol-5-yl)pyrazol-3-yl]-1-(2-fluorophenyl)cyclopropanecarboxamide] | 100 |
| COc1cnccc1-n1ccc(NC(=O)C2(c3ccccc3F)CC2)n1 [Compound 411, 1-(2-fluorophenyl)-N-[1-(3-methoxy-4-pyridyl)pyrazol-3-yl]cyclopropanecarboxamide] | > 5000 |
| Cc1nc(C)c(-n2ccc(NC(=O)C3(c4ccccc4F)CC3)n2)s1 [Compound 413, N-[1-(2,4-dimethylthiazol-5-yl)pyrazol-3-yl]-1-(2-fluorophenyl)cyclopropanecarboxamide] | > 5000 |
| Cc1nn(C(F)F)cc1-n1ccc(NC(=O)C2(c3ccccc3F)CC2)n1 [Compound 414, N-[1-[1-(difluoromethyl)-3-methyl-pyrazol-4-yl]pyrazol-3-yl]-1-(2-fluorophenyl)cyclopropanecarboxamide] | > 5000 |
| Cn1ncnc1-n1ccc(NC(=O)C2(c3ccccc3F)CC2)n1 [Compound 415, 1-(2-fluorophenyl)-N-[1-(2-methyl-1,2,4-triazol-3-yl)pyrazol-3-yl]cyclopropanecarboxamide] | 90 |
| Cn1nccc1-n1ccc(NC(=O)C2(c3ccccc3F)CC2)n1 [Compound 417, 1-(2-fluorophenyl)-N-[1-(2-methylpyrazol-3-yl)pyrazol-3-yl]cyclopropanecarboxamide] | 290 |
| O=C(Nc1ccn(-c2cccc(Cl)c2)n1)C1(c2ncccc2F)CC1 [Compound 418, N-(1-(3-chlorophenyl)-1H-pyrazol-3-yl)-1-(3-fluoropyridin-2-yl)cyclopropane-1-carboxamide] | 100 |
| O=C(Nc1ccn(-c2ccncc2)n1)C1(c2ncccc2F)CC1 [Compound 422, 1-(3-fluoro-2-pyridyl)-N-[1-(4-pyridyl)pyrazol-3-yl]cyclopropanecarboxamide] | 200 |
| O=C(Nc1ccn(-c2cncc(F)c2)n1)C1(c2ncccc2F)CC1 [Compound 423, 1-(3-fluoropyridin-2-yl)-N-(1-(5-fluoropyridin-3-yl)-1H-pyrazol-3-yl)cyclopropane-1-carboxamide] | 46 |
| O=C(Nc1ccn(-c2cnoc2)n1)C1(c2ccccc2F)CC1 [Compound 424, 1-(2-fluorophenyl)-N-(1-(isoxazol-4-yl)-1H-pyrazol-3-yl)cyclopropane-1-carboxamide] | > 5000 |
| Cn1cnc(-n2ccc(NC(=O)C3(c4ccccc4F)CC3)n2)n1 [Compound 425, 1-(2-fluorophenyl)-N-[1-(1-methyl-1,2,4-triazol-3-yl)pyrazol-3-yl]cyclopropanecarboxamide] | > 5000 |
| Cn1cncc1-n1ccc(NC(=O)C2(c3ccccc3F)CC2)n1 [Compound 426, 1-(2-fluorophenyl)-N-[1-(3-methylimidazol-4-yl)pyrazol-3-yl]cyclopropanecarboxamide] | > 2000 |
| Cn1cnnc1-n1ccc(NC(=O)C2(c3ccccc3F)CC2)n1 [Compound 427, 1-(2-fluorophenyl)-N-[1-(4-methyl-1,2,4-triazol-3-yl)pyrazol-3-yl]cyclopropanecarboxamide] | > 2000 |
| COc1ccc(-n2ccc(NC(=O)C3(c4ccccc4F)CC3)n2)c(OC)c1 [Compound 428] | > 5000 |
| COc1cc(F)ccc1-n1ccc(NC(=O)C2(c3ccccc3F)CC2)n1 [Compound 429, N-[1-(4-fluoro-2-methoxy-phenyl)pyrazol-3-yl]-1-(2-fluorophenyl)cyclopropanecarboxamide] | > 5000 |
| CCOc1ccc(-n2ccc(NC(=O)C3(c4ccccc4F)CC3)n2)cn1 [Compound 430, N-[1-(6-ethoxy-3-pyridyl)pyrazol-3-yl]-1-(2-fluorophenyl)cyclopropanecarboxamide] | > 5000 |
| CNc1ncc(-n2ccc(NC(=O)C3(c4ccccc4F)CC3)n2)cc1F [Compound 431, N-[1-[5-fluoro-6-(methylamino)-3-pyridyl]pyrazol-3-yl]-1-(2-fluorophenyl)cyclopropanecarboxamide] | 860 |
| [2H]C([2H])([2H])Oc1cc(-n2ccc(NC(=O)C3(c4ccccc4F)CC3)n2)ccn1 [Compound 439, 1-(2-fluorophenyl)-N-[1-[2-(trideuteriomethoxy)-4-pyridyl]pyrazol-3-yl]cyclopropanecarboxamide] | 80 |
| [2H]C([2H])([2H])Oc1ccc(-n2ccc(NC(=O)C3(c4ccccc4F)CC3)n2)cn1 [Compound 440, 1-(2-fluorophenyl)-N-[1-[6-(trideuteriomethoxy)-3-pyridyl]pyrazol-3-yl]cyclopropanecarboxamide] | 52 |
| [2H]C([2H])([2H])Oc1ncc(-n2ccc(NC(=O)C3(c4ccccc4F)CC3)n2)cc1F [Compound 441, 1-(2-fluorophenyl)-N-[1-[5-fluoro-6-(trideuteriomethoxy)-3-pyridyl]pyrazol-3-yl]cyclopropanecarboxamide] | 44 |
| COc1ncc(-n2nc(NC(=O)C3(c4ccccc4F)CC3)cc2F)cc1F [Compound 442, N-[5-fluoro-1-(5-fluoro-6-methoxy-3-pyridyl)pyrazol-3-yl]-1-(2-fluorophenyl)cyclopropanecarboxamide] | > 5000 |
| O=C(Nc1ccn(-c2ccc(F)cc2F)n1)C1(c2ccccc2F)CC1 [Compound 448, N-[1-(2,4-difluorophenyl)pyrazol-3-yl]-1-(2-fluorophenyl)cyclopropanecarboxamide] | 140 |
| CCOc1cc(-n2ccc(NC(=O)C3(c4ccccc4F)CC3)n2)ccn1 [Compound 449, N-[1-(2-ethoxy-4-pyridyl)pyrazol-3-yl]-1-(2-fluorophenyl)cyclopropanecarboxamide] | > 5000 |
| Cc1cc(F)ccc1-n1ccc(NC(=O)C2(c3ncccc3F)CC2)n1 [Compound 450, N-(1-(4-fluoro-2-methylphenyl)-1H-pyrazol-3-yl)-1-(3-fluoropyridin-2-yl)cyclopropane-1-carboxamide] | > 5000 |

Source: patent US20180251431A1 (VERTEX PHARMACEUTICALS INCORPORATED, priority 2016, published 2018)
